This experiment addresses PI3K β (Homo sapiens (Human), UniProt P42338). Briefly: PI3K enzyme inhibition assay (HTRF TR-FRET). Format: biochemical. An excerpt: The PI3K enzymes catalyse the phosphorylation of phosphatidylinositol 4,5-biphosphate (PIP2) to phosphatidylinositol 3,4,5-triphosphate (PIP3) in the presence of ATP and Mg^2+ ions. The PIP3 product can be detected by displacement of biotin-PIP3 from energy transfer complexes consisting of europium labelled anti-GST monoclonal antibody, a GST-tagged Pleckstrin homology (PH) domain, biotinylated PIP3 and streptavidin-allophycocyanin (APC) by the time-resolved fluorescence resonance energy transfer (TR-FRET) (HTRF®PI3K enzyme assay, Millipore). Excitation, at 330 nm, of europium in the complex results in an energy transfer to the APC and a fluorescent emission at 665 nm although europium itself emits at its characteristic wavelength of 620 nm. The PIP3 product formed by PI3K activity displaces biotin-PIP3 from the complex and results in a loss of energy transfer (decreasing signal).
The compound to be tested was added, at the desired final concentrations, to a mixture of PIP2 substrate and a recombinant PI3K enzyme (either α, β or δ isoforms, ex Millipore, or γ isoform [p110γ+p101 construct], ex United States Biological, Swampscott, Mass.) and the mixture incubated for 2 hr at RT. Following this incubation period, ATP (10 μM) was added to the enzyme/compound/PIP2 substrate mixture and the resulting mixture was incubated for a further 30 min at RT. A stopping solution containing biotinylated PIP3 and the detection mix containing the GST tagged GRP1 pleckstrin homology (PH) domain and fluorophores were then added and the mixture was incubated at RT for 15-18 hr, prior to detection in a fluorescence microplate reader (Synergy 4, BioTek UK, Bedfordshire, UK).
The results were calculated according to the formula: APC signal (emission at 665 nm)/europium signal (emission at 620 nm)×10^4. The percentage inhibition of each reaction was calculated relative to DMSO treated control, and the 50% inhibitory concentration (IC50 value) then calculated from the concentration-response curve.
For orientation: In TR-FRET formats the signal depends on donor and acceptor labels being close together.

Where two headings read alike, the source gives them in different places.

Results on one compound are retold here after patent US9227977B2, “Phosphoinositide 3-kinase inhibitors” (RESPIVERT LTD., priority 2013, dated 2016).

Chain of PI3K β (P42338 whole entry, species assumed): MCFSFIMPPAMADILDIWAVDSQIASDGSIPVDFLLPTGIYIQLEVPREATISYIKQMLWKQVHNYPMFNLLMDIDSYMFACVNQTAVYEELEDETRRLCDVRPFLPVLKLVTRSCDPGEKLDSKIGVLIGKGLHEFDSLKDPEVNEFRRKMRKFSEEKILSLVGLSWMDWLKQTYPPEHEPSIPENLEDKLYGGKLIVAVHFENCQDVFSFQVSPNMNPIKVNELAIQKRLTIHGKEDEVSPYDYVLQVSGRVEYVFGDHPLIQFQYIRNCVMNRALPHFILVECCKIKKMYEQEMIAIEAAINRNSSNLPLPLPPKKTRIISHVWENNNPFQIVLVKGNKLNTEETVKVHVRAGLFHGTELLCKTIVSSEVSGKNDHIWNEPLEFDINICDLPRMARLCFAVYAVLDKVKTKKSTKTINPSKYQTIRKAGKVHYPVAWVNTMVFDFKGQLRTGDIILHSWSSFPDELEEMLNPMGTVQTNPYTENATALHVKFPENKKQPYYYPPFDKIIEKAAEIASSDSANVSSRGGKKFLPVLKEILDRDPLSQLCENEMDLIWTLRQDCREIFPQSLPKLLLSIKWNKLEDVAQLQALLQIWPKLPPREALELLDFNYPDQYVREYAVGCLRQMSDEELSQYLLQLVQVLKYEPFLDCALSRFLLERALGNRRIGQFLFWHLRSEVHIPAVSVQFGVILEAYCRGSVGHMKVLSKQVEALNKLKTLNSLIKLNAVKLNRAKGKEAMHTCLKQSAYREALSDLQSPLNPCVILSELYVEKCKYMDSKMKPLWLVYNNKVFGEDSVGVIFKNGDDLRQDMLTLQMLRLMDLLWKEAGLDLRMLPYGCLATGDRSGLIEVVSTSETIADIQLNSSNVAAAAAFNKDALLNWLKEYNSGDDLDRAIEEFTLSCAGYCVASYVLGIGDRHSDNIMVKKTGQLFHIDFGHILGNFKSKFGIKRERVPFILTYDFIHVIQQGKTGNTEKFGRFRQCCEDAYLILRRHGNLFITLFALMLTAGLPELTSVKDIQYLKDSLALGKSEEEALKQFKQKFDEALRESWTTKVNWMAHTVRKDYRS
Chain of PI3K β (P27986 whole entry partner, species assumed): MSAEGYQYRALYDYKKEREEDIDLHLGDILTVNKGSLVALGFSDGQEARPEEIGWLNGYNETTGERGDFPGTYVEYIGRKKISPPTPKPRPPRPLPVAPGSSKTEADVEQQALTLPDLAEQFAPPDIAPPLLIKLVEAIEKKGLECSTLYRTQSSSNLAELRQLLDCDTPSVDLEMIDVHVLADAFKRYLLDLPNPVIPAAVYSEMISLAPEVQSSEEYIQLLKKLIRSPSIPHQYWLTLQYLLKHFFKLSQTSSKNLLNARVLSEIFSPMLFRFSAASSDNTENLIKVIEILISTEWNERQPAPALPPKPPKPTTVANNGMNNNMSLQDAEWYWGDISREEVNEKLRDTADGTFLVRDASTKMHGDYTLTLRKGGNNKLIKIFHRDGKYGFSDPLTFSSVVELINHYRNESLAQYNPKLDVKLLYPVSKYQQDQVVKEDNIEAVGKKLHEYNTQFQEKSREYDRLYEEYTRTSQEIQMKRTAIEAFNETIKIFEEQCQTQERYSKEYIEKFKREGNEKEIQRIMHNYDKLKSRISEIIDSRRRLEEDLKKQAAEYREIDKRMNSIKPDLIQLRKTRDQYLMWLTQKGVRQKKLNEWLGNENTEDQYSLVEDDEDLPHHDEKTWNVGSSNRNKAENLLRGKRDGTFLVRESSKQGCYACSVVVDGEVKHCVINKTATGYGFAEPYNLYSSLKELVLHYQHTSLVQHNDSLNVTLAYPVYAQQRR

Consider `COCCOCCOCC#Cc1cccc2nc(Cn3nc(-c4cc(O)cc(F)c4)c4c(N)ncnc43)n(Cc3ccccc3C(F)(F)F)c(=O)c12` [Compound (I), 2-((4-Amino-3-(3-fluoro-5-hydroxyphenyl)-1H-pyrazolo[3,4-d]pyrimidin-1-yl)methyl)-5-(3-(2-(2-methoxyethoxy)ethoxy)prop-1-yn-1-yl)-3-(2-(trifluoromethyl)benzyl)quinazolin-4(3H)-one], for which the “inhibitory activity versus PI3K β in enzyme assays (in words)” value is listed as “low inhibitory activity”. Further, the IC50 (in general, the concentration that inhibits the measured activity by half) (read-out: IC50 Values for PI3K inhibition at isozyme indicated, PI3K β) came out at 4.89 µM. Moreover, the concentration for half-maximal inhibition (IC50) (read-out: PI3 Kinase Inhibition IC50 value at state isozyme, β) came to 4.89 µM.
